Active and inactive are the calls of the source. The rule behind the calls is not given here.

Sequence of Nuclear receptor coactivator 1 (Homo sapiens) (Q15788 whole entry, looked up): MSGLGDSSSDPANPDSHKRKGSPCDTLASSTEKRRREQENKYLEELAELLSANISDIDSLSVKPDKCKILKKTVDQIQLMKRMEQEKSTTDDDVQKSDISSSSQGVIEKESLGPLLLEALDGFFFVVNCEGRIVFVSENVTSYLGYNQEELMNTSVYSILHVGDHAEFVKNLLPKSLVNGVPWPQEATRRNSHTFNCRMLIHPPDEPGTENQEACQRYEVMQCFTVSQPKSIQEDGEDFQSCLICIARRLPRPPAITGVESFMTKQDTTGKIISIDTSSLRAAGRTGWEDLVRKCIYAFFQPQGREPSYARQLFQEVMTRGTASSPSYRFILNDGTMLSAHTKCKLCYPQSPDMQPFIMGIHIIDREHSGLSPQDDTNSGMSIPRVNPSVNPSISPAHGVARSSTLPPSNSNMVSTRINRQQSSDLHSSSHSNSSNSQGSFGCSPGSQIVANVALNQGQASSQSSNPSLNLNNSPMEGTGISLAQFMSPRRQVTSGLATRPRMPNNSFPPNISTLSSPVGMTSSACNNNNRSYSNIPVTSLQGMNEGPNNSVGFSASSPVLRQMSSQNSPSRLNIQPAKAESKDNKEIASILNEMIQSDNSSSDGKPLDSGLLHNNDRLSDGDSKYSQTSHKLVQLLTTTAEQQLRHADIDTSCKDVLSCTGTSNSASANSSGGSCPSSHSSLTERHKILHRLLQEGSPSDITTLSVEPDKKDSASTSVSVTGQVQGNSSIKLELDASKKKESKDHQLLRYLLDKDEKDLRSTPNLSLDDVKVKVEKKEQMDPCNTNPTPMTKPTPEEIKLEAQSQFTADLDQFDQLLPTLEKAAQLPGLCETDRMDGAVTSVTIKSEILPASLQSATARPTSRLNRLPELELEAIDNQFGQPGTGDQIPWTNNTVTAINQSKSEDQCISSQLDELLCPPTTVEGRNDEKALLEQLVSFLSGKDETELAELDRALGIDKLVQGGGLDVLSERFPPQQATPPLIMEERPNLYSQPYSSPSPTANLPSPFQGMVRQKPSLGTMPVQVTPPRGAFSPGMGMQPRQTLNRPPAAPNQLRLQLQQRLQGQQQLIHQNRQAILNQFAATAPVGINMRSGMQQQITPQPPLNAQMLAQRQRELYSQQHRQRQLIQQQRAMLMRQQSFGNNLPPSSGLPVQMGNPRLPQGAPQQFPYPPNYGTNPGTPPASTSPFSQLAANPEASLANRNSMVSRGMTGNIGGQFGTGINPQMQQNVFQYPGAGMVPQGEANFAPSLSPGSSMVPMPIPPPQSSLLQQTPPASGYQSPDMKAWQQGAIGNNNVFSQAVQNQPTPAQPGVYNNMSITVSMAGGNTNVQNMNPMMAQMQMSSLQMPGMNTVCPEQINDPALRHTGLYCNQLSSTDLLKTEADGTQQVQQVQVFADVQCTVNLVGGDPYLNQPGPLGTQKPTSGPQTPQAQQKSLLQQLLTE

The assay addresses Nuclear receptor coactivator 1 (Homo sapiens) (UniProt Q15788). The assay can be described thus: inhibition of NCOA1 transcriptional coactivation in cells – cell-based, luciferase reporter, luminescence, dose response (AID 602235).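 Note: cells transfected with pGL4.31 reporter plus pBIND-SRC1 vector; potency is for inhibitors that lower SRC1 reporter luminescence.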 The note with it: cell-based SRC1 luciferase reporter. On the technique in general: In a reporter assay the amount or activity of a reporter protein is the signal.
For `CCn1c(Oc2ccc(F)cc2)nc2c1c(=O)n(C)c(=O)n2C`, the IC50 is > 12 µM (inactive).

`O=C(Nc1cccc(Cl)c1)Nc1nnc(-c2ccncc2)s1`: the IC50 is 8 µM.

In the case of `O=c1ccc2c(ccc3ncccc32)o1`, the IC50 entry is “inactive”.

Take `CC(=O)NC(c1cc(Cl)c2cccnc2c1O)C(C)C` (stereo unspecified): the IC50 was > 35.9 µM (inactive).

For `Cc1ccc(/C=C2\SC(=S)N(CCCC(=O)NC3CCCC3)C2=O)cc1`, the concentration for half-maximal inhibition (IC50) is 3.37 µM.

For `CC(C)Cn1c(N)c(C(=O)COC(=O)c2cc3ccccc3cc2O)c(=O)n(C)c1=O`, the IC50 is > 35.9 µM (inactive).

Consider `COc1cccc(C2=CC(=O)CC(C)(C)C2)c1`, for which the IC50 result was “inactive”.

For the compound `O=C(NC(NC(=S)N1CCOCC1)C(Cl)(Cl)Cl)c1ccc(Cl)cc1` (stereo unspecified), the IC50 was > 35.9 µM (inactive).

For the compound `N#Cc1cc2ccncc2c2ccccc12`, the IC50 was > 35.9 µM (inactive).

As to `C=CCc1ccccc1OCC(=O)N/N=C/c1ccc(OC(C)=O)cc1OC(C)=O`, the IC50 entry was “inactive”.

Turning to `CCN(C(=O)c1cc(S(=O)(=O)N2CCCCC2)c[nH]1)c1ccc(OC)cc1`, the IC50 entry was “inactive”.

For `Cc1c2ccncc2cc2c1[nH]c1ccccc12`, the IC50 is > 35.9 µM (inactive).

As to `CC(=O)NC(c1cc(Cl)c2cccnc2c1O)C1CC1` (stereo unspecified), the IC50 result is “inactive”.

On to `Fc1ccc(CSc2nnc(-c3ccncc3)o2)cc1`, for which the IC50 was 6.06 µM.

As to `CCc1nc(N)nc(N)c1-c1ccc(Cl)c([N+](=O)[O-])c1`, the IC50 was 6.12 µM.

Take `O=C(NC1CCCCC1)C(c1cccnc1)N(C(=O)CCl)c1cccc(Cl)c1` (stereo unspecified): the IC50 is 6.91 µM.

`Cc1ccc(NC(=O)NC2CC(=O)N(c3ccc4c(c3)OCCO4)C2)cc1C` (stereo unspecified): the IC50 is 6 µM.

Consider `CCOc1ccc(/C=C2\SC(=S)N(CCC(=O)O)C2=O)cc1`, for which the IC50 was > 35.9 µM (inactive).

In the case of `O=C(CCCOc1ccc(Cl)cc1Cl)N/N=C/c1ccccc1O`, the IC50 is 6.73 µM.

Regarding `CN(CC(=O)Nc1ccc(Cl)c(C(F)(F)F)c1)C(=O)C1CC(=O)N(c2ccc3c(c2)OCCO3)C1` (stereo unspecified), the IC50 entry was “inactive”.

Turning to `COc1ccc(Nc2ncnc3ccc(Br)cc23)c(OC)c1`, the IC50 was 2.44 µM.

In the case of `O=C(Nc1cccc2c1CCCC2)c1cc([N+](=O)[O-])ccc1Cl`, the IC50 was > 35.9 µM (inactive).

Consider `O=C(N/N=C(\c1ccccc1)c1ccccn1)c1ccccc1Cl`, for which the IC50 result was “inactive”.

As for `Cc1nn(CC(=O)N2CCN(c3cccc(C(F)(F)F)c3)CC2)c(=O)c2cccn12`, the IC50 entry was “inactive”.

Turning to `CCCCC(=O)OCC(=O)C1(O)Cc2c(O)c3c(c(O)c2C(OC2CC(NC(=O)C(F)(F)F)C(O)C(C)O2)C1)C(=O)c1c(OC)cccc1C3=O` (stereo unspecified), the IC50 is > 35.9 µM (inactive).

As to `Cc1cc(=O)[nH]c(Nc2cccc(Br)c2)n1`, the IC50 result was “inactive”.

In the case of `Cn1nc(C(F)(F)F)c(C#N)c1N1CCN(c2ccc(F)cc2)CC1`, the IC50 is 9.32 µM.

Consider `NC(=S)NN=Cc1ccc(OC(=O)COc2cc(Cl)c(Cl)cc2Cl)cn1`, for which the IC50 result was “inactive”.

Regarding `COc1ccc(-n2cnc(N)c2C(=O)c2cccc([N+](=O)[O-])c2)cc1`, the IC50 result was “inactive”.

For `Cc1ccc(/C=C2/SC(=S)N(CCCC(=O)Nc3ccc(O)cc3)C2=O)cc1`, the IC50 is > 35.9 µM (inactive).

`CCOc1ccc(/C=C2\SC(=S)N(CCCC(=O)NCCCN3CCOCC3)C2=O)cc1`: the IC50 was > 12 µM (inactive).

Take `COC(=O)c1sc2cnccc2c1N`: the IC50 result was “inactive”.

For the compound `O=C(O)c1ccccc1C(=O)Nc1ccc(Oc2cccc3ccccc23)cc1`, the IC50 was > 35.9 µM (inactive).

On to `O=C(Nc1c(-c2ccccc2)[nH][nH]c1=O)c1cccc(C(F)(F)F)c1`, for which the IC50 was > 35.8 µM (inactive).

As for `CN(C)C(=O)c1ccc(-c2n[nH]c(=O)c3ccccc23)cc1`, the IC50 result is “inactive”.

In the case of `O=C(CCl)NC(Cc1ccccc1)c1ccccc1` (stereo unspecified), the IC50 entry was “inactive”.

On to `COc1ccccc1NS(=O)(=O)c1cccc(NC(=O)c2cncc(Br)c2)c1`, for which the IC50 result is “inactive”.

On to `S=C(Nc1ccccc1)Nc1ccc(OCc2ccc(Cl)cc2Cl)cc1`, for which the IC50 is 4.26 µM.

As to `NC(=O)c1cc(Sc2ccccc2)nc2ccccc12`, the IC50 is 7.5 µM.

As to `C=CCn1c(Oc2ccccc2F)nc2c1c(=O)n(C)c(=O)n2C`, the IC50 result is “inactive”.

Take `Cc1noc(/C=C/c2ccco2)c1S(=O)(=O)N1CCC(C(=O)Nc2ccc(Cl)cn2)CC1`: the IC50 is > 35.9 µM (inactive).

On to `COc1ccc2c(c1)-c1c(ssc1=S)C(C)(C)N2C(=O)CSC1=NCCS1`, for which the IC50 result is “inactive”.

On to `O=C(N/N=C/c1ccc(O)cc1O)/C(=C/c1ccccc1)CCO`, for which the IC50 result was “inactive”.

As for `O=C(CCC1CCCC1)Nc1ccc(C(=O)NCc2cccnc2)cc1`, the concentration for half-maximal inhibition (IC50) is 3.87 µM.

In the case of `O=C1CCC/C1=c1\s/c(=C/c2cccnc2)c(=O)n1-c1ccccc1`, the IC50 result is “inactive”.

For `CN(C)C=Nc1c(C(=O)c2ccccc2)sc2nccc(N(C)C)c12`, the IC50 was 8.53 µM.

Turning to `CN(Cc1cnc2nc(N)nc(N)c2n1)c1ccc(C(=O)NC(CCC(=O)O)C(=O)O)c2ccccc12` (stereo unspecified), the IC50 is > 35.9 µM (inactive).

On to `CC(C)(C)c1cc(C(=O)N/N=C/c2ccc(O)cc2)n(-c2ccccc2)n1`, for which the IC50 was > 35.9 µM (inactive).

Regarding `Cc1ccc(O)c(Nc2ncnc3ccc([N+](=O)[O-])cc23)c1`, the IC50 entry is “inactive”.

In the case of `Cc1ccc(C(=O)Nc2sc(C)c(-c3ccccc3)c2C(N)=O)cc1[N+](=O)[O-]`, the IC50 was > 35.9 µM (inactive).

As for `COc1ccc(NC(=O)CN(C)C(=O)C2(c3ccccc3)CCCC2)cc1`, the IC50 result was “inactive”.

On to `Cc1ccc(OCC(=O)c2cc(C)n(Cc3cccs3)c2C)c([N+](=O)[O-])n1`, for which the IC50 is > 35.9 µM (inactive).

Turning to `CCOc1ccc(-c2noc(CCC(=O)O)n2)cc1`, the IC50 was > 35.9 µM (inactive).

For the compound `CC(C)(C)NC(=O)C1(C)CCC(=O)N1CCCn1ccnc1` (stereo unspecified), the IC50 result was “inactive”.

Take `CCCCCCCC[n+]1c(C)n(-c2ccccc2)c2ccc(NC(C)=O)cc21`: the IC50 was > 35.9 µM (inactive).

Take `Cc1nc2ccccn2c1-c1ccnc(=S)[nH]1`: the IC50 is 6.33 µM.

Regarding `COc1cc2c3c([nH]c2cc1F)C(=O)NCC3`, the IC50 was 9.54 µM.

Consider `NNC(=O)c1cc2ccccc2cc1O`, for which the IC50 is 7.02 µM.

On to `Cc1sc2ncnc(N3CCC(C(=O)N(C)CC(=O)Nc4cccc(F)c4)CC3)c2c1C`, for which the IC50 is > 12 µM (inactive).

On to `COc1cccc(NC(=O)CN(C)CC(=O)Nc2ccc(Cl)cc2[N+](=O)[O-])c1`, for which the IC50 entry was “inactive”.

As to `COc1ccc(/C=C2/SC(=S)N(CCC(=O)O)C2=O)cc1`, the IC50 is > 35.9 µM (inactive).

In the case of `CC1CC(C)C(=NNC(N)=O)C(C(O)CC2CCC(=O)NC2=O)C1` (stereo unspecified), the IC50 is 8.57 µM.

Consider `CN(Cc1cnc2nc(N)nc(N)c2n1)c1ccc(C(=O)N[C@@H](CCC(=O)O)C(=O)O)cc1`, for which the IC50 is > 35.9 µM (inactive).

For the compound `CC(C)(C)OC(=O)NCC(=O)Oc1cc2oc(=O)cc(-c3ccccc3)c2cc1Cl`, the IC50 entry is “inactive”.

Regarding `S=C(c1ccc(-c2ccccc2)cc1)N1CCOCC1`, the IC50 is > 35.8 µM (inactive).

For `Cc1ccc(NC(=O)C2CCN(c3ncnc4sc(C)c(C)c34)CC2)cc1S(=O)(=O)N(C)C`, the IC50 result is “inactive”.

For orientation: IC50 means the midpoint of a concentration-inhibition curve.

For the origin of these results see PubChem BioAssay AID602235 (The Scripps Research Institute Molecular Screening Center, 2012).
